Reference: patent US20180016593A1, “HERBICIDE-RESISTANT SUNFLOWER PLANTS, POLYNUCLEOTIDES ENCODING HERBICIDE-RESISTANT ACETOHYDROXYACID SYNTHASE LARGE SUBUNIT PROTEINS, AND METHODS OF USE” (priority 2005, published 2018)
Where two headings read alike, the source gives them in different places.

How the values were obtained:
Assay type in all cases: in vivo, Helianthus annuus
[1] = tested on: sunflower lines carrying the A122T mutation; details: 14 DAT; for root dry weight, Mean / biomass accumulation, Mean / plant height, Mean: six A122T genotypes; for Phytotoxicity Index, Mean: three A122T genotypes
Description: (§1) A greenhouse study was conducted to quantify and contrast the imazapir sensivity of the mutants A122T and A205V in different genetic backgrounds at the whole plant level in sunflower. Seeds of the different sunflower lines that were used in this study were obtained under field conditions.
(§2) Seeds were sown in Petri dishes and, after germination, plantlets were transplanted to pots of 10 cm of diameter in a potting media consisting of equal parts of vermiculite, soil and sand. Plants were grown in a greenhouse under natural light conditions supplemented with 400 W sodium halide lamps to provide a 16 hrs daylength. Day/night temperatures were 25 and 20° C., respectively. At the V2 stage 10 plants of each genotype were randomly assigned to each treatment consisting of […] imazapir doses (0, 40, 80, 160, 240, 320, 400 and 480 g ai/ha), and a zero-time biomass determination. Experiment was arranged as a randomized block design with a full factorial (sunflower line×treatment) arrangement of treatments and 10 replications.
(§3) On the day of herbicide application ten plants of each genotype were cut at the cotyledonal node and dried at 60° C. for 48 hrs zero-time for dried weight determination.
(§4) Height was determined as the distance between the cotyledonal node and the apex of each plant. For root biomass determination, each plant was taken from the pot and the potting media was washed out from the roots. Above ground biomass data from each line were converted to biomass accumulation after application by subtracting the appropriate average zero-time biomass from each sample. Dry biomass data were converted to percentages of the untreated control plants within each line to allow direct comparisons between groups. […]

[2] = tested on: sunflower TH12 (Restorer Line, A122T); details: 14 DAT
Description: as §1, §2, §3, §4

[3] = tested on: sunflower TH1 (Hybrid, A205V); details: 14 DAT
Description: as §1, §2, §3, §4

Question: For `CC(C)C1(C)N=C(c2ncccc2C(=O)O)NC1=O` (stereo not drawn) [imazapyr], which “root dry weight, Mean” value ([1]; 4x (320 g ai/ha)) is on record?
Answer: The value was 81.4 % of untreated plots.

Question: And the “biomass accumulation, Mean” value ([1]; 5x (400 g ai/ha))?
Answer: The value was 79.3 % of untreated plots.

Question: What about the “plant height, Mean” value ([1]; 5x (400 g ai/ha)) of the same molecule?
Answer: Its value is 89.8 % of untreated plots.

Question: And the “root dry weight, Mean” value ([1]; 5x (400 g ai/ha))?
Answer: The value was 78.7 % of untreated plots.

Question: What about the “biomass accumulation, Mean” value ([1]; 6x (480 g ai/ha)) of the same molecule?
Answer: The value was 74.6 % of untreated plots.

Question: What about the “plant height, Mean” value ([1]; 6x (480 g ai/ha)) of the same molecule?
Answer: The value was 84.2 % of untreated plots.

Question: What about the “root dry weight, Mean” value ([1]; 6x (480 g ai/ha)) of the same molecule?
Answer: The value was 61.7 % of untreated plots.

Question: And the “Phytotoxicity Index, Mean” value ([1]; 0.5x (40 g ai/ha))?
Answer: Its value is 0.3.

Question: And the “Phytotoxicity Index, Mean” value ([1]; 1x (80 g ai/ha))?
Answer: The value was 0.3.

Question: What about the “Phytotoxicity Index, Mean” value ([1]; 2x (160 g ai/ha)) of the same molecule?
Answer: Its value is 0.3.

Question: What about the “Phytotoxicity Index, Mean” value ([1]; 3x (240 g ai/ha)) of the same molecule?
Answer: Its value is 0.3.

Question: What about the “Phytotoxicity Index, Mean” value ([1]; 4x (320 g ai/ha)) of the same molecule?
Answer: Its value is 0.5.

Question: And the “Phytotoxicity Index, Mean” value ([1]; 5x (400 g ai/ha))?
Answer: Its value is 0.8.

Question: What about the “Phytotoxicity Index, Mean” value ([1]; 6x (480 g ai/ha)) of the same molecule?
Answer: The value was 1.2.

Question: What about the “Phytotoxicity Index” value ([2]; 0.5x (40 g ai/ha)) of the same molecule?
Answer: Its value is 0.0.

Question: What about the “biomass accumulation (above ground dry weight)” value ([2]; 0.5x (40 g ai/ha)) of the same molecule?
Answer: The value was 100.0 % of untreated plots.

Question: What about the plant height ([2]; 0.5x (40 g ai/ha)) of the same molecule?
Answer: The plant height was 100.0 % of untreated plots.

Question: And the root dry weight ([2]; 0.5x (40 g ai/ha))?
Answer: Its root dry weight is 99.4 % of untreated plots.

Question: And the “Phytotoxicity Index” value ([2]; 1x (80 g ai/ha))?
Answer: The value was 0.0.

Question: And the “biomass accumulation (above ground dry weight)” value ([2]; 1x (80 g ai/ha))?
Answer: The value was 99.1 % of untreated plots.

Question: What about the plant height ([2]; 1x (80 g ai/ha)) of the same molecule?
Answer: Its plant height is 100.0 % of untreated plots.

Question: And the root dry weight ([2]; 1x (80 g ai/ha))?
Answer: The root dry weight was 100 % of untreated plots.

Question: And the “Phytotoxicity Index” value ([2]; 2x (160 g ai/ha))?
Answer: The value was 0.0.

Question: And the “biomass accumulation (above ground dry weight)” value ([2]; 2x (160 g ai/ha))?
Answer: The value was 97.0 % of untreated plots.

Question: What about the plant height ([2]; 2x (160 g ai/ha)) of the same molecule?
Answer: The plant height was 101.8 % of untreated plots.

Question: What about the root dry weight ([2]; 2x (160 g ai/ha)) of the same molecule?
Answer: Its root dry weight is 100 % of untreated plots.

Question: And the “Phytotoxicity Index” value ([2]; 3x (240 g ai/ha))?
Answer: Its value is 0.0.

Question: What about the “biomass accumulation (above ground dry weight)” value ([2]; 3x (240 g ai/ha)) of the same molecule?
Answer: The value was 96.1 % of untreated plots.

Question: And the plant height ([2]; 3x (240 g ai/ha))?
Answer: Its plant height is 97.0 % of untreated plots.

Question: And the root dry weight ([2]; 3x (240 g ai/ha))?
Answer: The root dry weight was 100.0 % of untreated plots.

Question: And the “Phytotoxicity Index” value ([2]; 4x (320 g ai/ha))?
Answer: The value was 0.0.

Question: What about the “biomass accumulation (above ground dry weight)” value ([2]; 4x (320 g ai/ha)) of the same molecule?
Answer: Its value is 84.3 % of untreated plots.

Question: And the plant height ([2]; 4x (320 g ai/ha))?
Answer: Its plant height is 92.1 % of untreated plots.

Question: What about the root dry weight ([2]; 4x (320 g ai/ha)) of the same molecule?
Answer: Its root dry weight is 74.5 % of untreated plots.

Question: What about the “Phytotoxicity Index” value ([2]; 5x (400 g ai/ha)) of the same molecule?
Answer: The value was 0.0.

Question: What about the “biomass accumulation (above ground dry weight)” value ([2]; 5x (400 g ai/ha)) of the same molecule?
Answer: Its value is 77.5 % of untreated plots.

Question: What about the plant height ([2]; 5x (400 g ai/ha)) of the same molecule?
Answer: The plant height was 84.8 % of untreated plots.

Question: What about the root dry weight ([2]; 5x (400 g ai/ha)) of the same molecule?
Answer: Its root dry weight is 65.0 % of untreated plots.

Question: And the “Phytotoxicity Index” value ([2]; 6x (480 g ai/ha))?
Answer: Its value is 0.5.

Question: And the “biomass accumulation (above ground dry weight)” value ([2]; 6x (480 g ai/ha))?
Answer: Its value is 70.7 % of untreated plots.

Question: What about the plant height ([2]; 6x (480 g ai/ha)) of the same molecule?
Answer: The plant height was 79.8 % of untreated plots.

Question: And the root dry weight ([2]; 6x (480 g ai/ha))?
Answer: The root dry weight was 57.8 % of untreated plots.

Question: And the “biomass accumulation (above ground dry weight)” value ([3]; 0.5x (40 g ai/ha))?
Answer: Its value is 95.0 % of untreated plots.

Question: And the plant height ([3]; 0.5x (40 g ai/ha))?
Answer: Its plant height is 99.5 % of untreated plots.

Question: And the root dry weight ([3]; 0.5x (40 g ai/ha))?
Answer: Its root dry weight is 79.4 % of untreated plots.

Question: What about the “biomass accumulation (above ground dry weight)” value ([3]; 1x (80 g ai/ha)) of the same molecule?
Answer: Its value is 89.6 % of untreated plots.

Question: And the plant height ([3]; 1x (80 g ai/ha))?
Answer: The plant height was 99.5 % of untreated plots.

Question: And the root dry weight ([3]; 1x (80 g ai/ha))?
Answer: Its root dry weight is 70.7 % of untreated plots.

Question: And the “biomass accumulation (above ground dry weight)” value ([3]; 2x (160 g ai/ha))?
Answer: The value was 75.5 % of untreated plots.

Question: What about the plant height ([3]; 2x (160 g ai/ha)) of the same molecule?
Answer: Its plant height is 78.6 % of untreated plots.

Question: And the root dry weight ([3]; 2x (160 g ai/ha))?
Answer: Its root dry weight is 69.6 % of untreated plots.

Question: And the “biomass accumulation (above ground dry weight)” value ([3]; 3x (240 g ai/ha))?
Answer: The value was 60.4 % of untreated plots.

Question: What about the plant height ([3]; 3x (240 g ai/ha)) of the same molecule?
Answer: Its plant height is 48.4 % of untreated plots.

Question: What about the root dry weight ([3]; 3x (240 g ai/ha)) of the same molecule?
Answer: The root dry weight was 42.3 % of untreated plots.

Question: And the “biomass accumulation (above ground dry weight)” value ([3]; 4x (320 g ai/ha))?
Answer: The value was 48.5 % of untreated plots.

Question: What about the plant height ([3]; 4x (320 g ai/ha)) of the same molecule?
Answer: The plant height was 28.9 % of untreated plots.

Question: What about the root dry weight ([3]; 4x (320 g ai/ha)) of the same molecule?
Answer: The root dry weight was 38.6 % of untreated plots.

Question: And the “biomass accumulation (above ground dry weight)” value ([3]; 5x (400 g ai/ha))?
Answer: Its value is 38.9 % of untreated plots.

Question: What about the plant height ([3]; 5x (400 g ai/ha)) of the same molecule?
Answer: Its plant height is 25.3 % of untreated plots.

Question: And the root dry weight ([3]; 5x (400 g ai/ha))?
Answer: The root dry weight was 34.7 % of untreated plots.

Question: What about the “biomass accumulation (above ground dry weight)” value ([3]; 6x (480 g ai/ha)) of the same molecule?
Answer: Its value is 33.9 % of untreated plots.

Question: What about the plant height ([3]; 6x (480 g ai/ha)) of the same molecule?
Answer: Its plant height is 27.1 % of untreated plots.

Question: What about the root dry weight ([3]; 6x (480 g ai/ha)) of the same molecule?
Answer: Its root dry weight is 23.1 % of untreated plots.
